Assay results published in ChEMBL document CHEMBL1150517, “The structural feature of S1 subsite of carboxypeptidase A” (Bioorg Med Chem Lett, 1991).

biological target: T1, Carboxypeptidase A1 (Bos taurus, UniProt P00730); assay: Binding affinity against carboxypeptidase A using hippurylphenylalanine as substrate
T1 sequence (P00730 whole entry): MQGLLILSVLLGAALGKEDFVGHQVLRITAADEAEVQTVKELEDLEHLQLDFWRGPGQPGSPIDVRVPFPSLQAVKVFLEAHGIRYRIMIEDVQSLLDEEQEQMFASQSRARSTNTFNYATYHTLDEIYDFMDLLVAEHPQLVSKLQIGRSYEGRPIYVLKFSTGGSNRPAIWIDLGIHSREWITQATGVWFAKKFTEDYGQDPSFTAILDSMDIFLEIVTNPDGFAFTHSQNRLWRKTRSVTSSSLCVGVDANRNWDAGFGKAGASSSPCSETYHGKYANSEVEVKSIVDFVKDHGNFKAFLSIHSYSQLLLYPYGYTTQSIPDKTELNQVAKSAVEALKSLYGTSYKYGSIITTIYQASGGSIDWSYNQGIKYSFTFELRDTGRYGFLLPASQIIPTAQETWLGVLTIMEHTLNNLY

SMILES	Ki
O=C(O)C(CS)Cc1cc(F)c(F)c(F)c1 (configuration not stated)	590 nM
Cc1ccc(CC(CS)C(=O)O)cc1C (configuration not stated)	492 nM
O=C(O)C(CS)Cc1c(F)c(F)c(F)c(F)c1F (configuration not stated)	2300 nM
O=C(O)C(CS)Cc1ccc(F)c(F)c1 (configuration not stated)	250 nM
O=C(O)C(CS)CC1CCCCC1 (configuration not stated)	2350 nM
O=C(O)C(CS)Cc1ccc(F)cc1 (configuration not stated)	37 nM
O=C(O)C(CS)Cc1ccc2ccccc2c1 (configuration not stated)	200 nM
Cc1ccc(CC(CS)C(=O)O)cc1 (configuration not stated)	112 nM
CC(C)c1ccc(CC(CS)C(=O)O)cc1 (configuration not stated)	4500 nM
Cc1cccc(CC(CS)C(=O)O)c1C (configuration not stated)	350 nM
CC(C)(C)c1ccc(CC(CS)C(=O)O)cc1 (configuration not stated)	7700 nM
Cc1cccc(CC(CS)C(=O)O)c1 (configuration not stated)	170 nM
O=C(O)C(CS)Cc1ccccc1F (configuration not stated)	45 nM
O=C(O)C(CS)Cc1cccc2ccccc12 (configuration not stated)	480 nM
O=C(O)C(CS)Cc1cccc(F)c1 (configuration not stated)	35 nM
Cc1ccccc1CC(CS)C(=O)O (configuration not stated)	120 nM
O=C(O)C(CS)Cc1ccccc1 (configuration not stated)	11 nM
